Test results: US6384007B1, “Method and composition for enhancing the activity of an enzyme” (Unilever Home & Personal USA division of Conopco, Inc., priority 1999, dated 2002)

Experiments:
[1] = Bleaching of tomato stains on cotton swatches (Example 1); conditions: detergent wash solution 2 g/l, 1 hour at 30° C
Experimental: The potential of the enhancer, Ethanedioic acid, 2-[(4-aminophenyl)sulfonyl)hydrazide-2-phenylhydrazide, to boost the bleach performance of phenol oxidizing enzyme was assessed by washing cotton swatches soiled with tomato stains
Purified phenol oxidizing enzyme from Acremonium murorum was added to the wash solution at 100 mg/l. The enzyme from Acremonium murorum is described in WO-A-00/05349 (Unilever). The enhancer was dosed at 250 μM. The following formulation was used as wash solution (2 g/l): […]
The swatches were washed during 1 hour at 30° C. After the wash, the swatches were tumble-dried and the reflectance spectra were measured using a Minolta spectrometer. The color differences between the swatch before and after the wash data were expressed in the CIELAB L*a*b* color space. In this color space, L* indicates lightness and a* and b* are the chromaticity coordinates. Color differences between two swatches are expressed as ΔE, which is calculated from the following equation:
ΔE={square root over (ΔL^2+Δa^2+Δb^2+L )}
Table 1: Stain bleach performance of the phenol oxidizing enzyme/enhancer system on tomato stains in the presence of different enhancers.

[2] = Bleaching of tomato stains on cotton swatches (Example 2); conditions: enhancer 250 μM + enzyme 20 mg/l; detergent formulation pH 9; 30 minutes at 30 C
Experimental: Stain bleach experiments were performed as in Example 1, except that 20 mg/l enzymes was used. The detergent formulation was set at pH 9, and the swatches washed during 30 minutes at 30 C.
Table 2: Stain bleach performance of the phenol oxidizing enzyme/enhancer system on tomato stains in the presence of the enzymatic bleach system.

For `Nc1ccc(S(=O)(=O)NNC(=O)C(=O)NNc2ccccc2)cc1` [enhancer, Ethanedioic acid, 2-[(4-aminophenyl)sulfonyl)hydrazide-2-phenylhydrazide], which “ΔE (CIELAB colour difference of swatch before and after wash), wash with enzyme and enhancer added” value ([1]; enhancer 250 μM + phenol oxidizing enzyme from Acremonium murorum 100 mg/l) is on record?
The value was “ΔE = 11.9”.

What about the “ΔE (CIELAB colour difference of swatch before and after wash), wash with enhancer only” value ([1]; enhancer 250 μM, no enzyme) of the same molecule?
Its value is “ΔE = 9.1”.

What about the “ΔE (CIELAB colour difference of swatch before and after wash), wash with enzyme and enhancer added” value [2] of the same molecule?
The value was “ΔE = 10.6”.
